Results from patent US11246924B2, “Alpha-helical peptide nanofibers as a self-adjuvanting vaccine platform” (Duke University, priority 2016, dated 2022).
“Also recorded” adds a separate entry of the source.

Columns and labels:
[1] = test system: PEPvIII epitope (EGFRvIII); test: PEPvIII-specific IgG antibody titers in sera after subcutaneous immunization (ELISA); assay type: in vivo, C57BL/6 mice; conditions: for PEPvIII-specific IgG antibody response: s.c. primary injection week 0 (2×10^−3 M PEPvIII epitope, 100 μL), half-dose boosts weeks 4 and 7, sera over 18 weeks
Procedure: Vaccine Preparation: To prepare PEPvIII-Coil29 peptide fibers solutions for immunization, the lyophilized peptides were first dissolved in 10×10^−3 M sterile acetate buffer (pH 4) at 8×10^−3 M and incubated overnight at […]. The peptide solutions were subsequently diluted to 2×10^−3 M in 1×PBS, and incubated 3 h at room temperature prior to immunization. For coassembled peptide fiber formation, PEPvIII-Coil29 and PADRE-Coil29 were weight out separately, and mixed on vortex for 5 mins before dissolved in 10×10^−3 M sterile acetate buffer (pH 4), and diluted in the same procedure as PEPvIII-Coil29 nanofiber preparation. To prepare CFA/IFA peptide emulsion for immunization, PEPvIII peptide was initially dissolved in 4×10^−3 M in sterile water, and equal volume of adjuvant solution was mixed in with peptide solution and vortexed for 45 min to bring the final concentration of peptide to 2×10^−3 M for injection.
Mice and Immunizations: Female 057B1/6 mice were purchased from Harlan laboratory and housed at the animal facility at the University of Chicago and Duke University. All procedures were approved by both the University of Chicago Institutional Animal Care and Use Committee (protocol 71-900) and the Duke Institutional Animal Care and Use Committee (protocol A314-15-12 19N). Mice (6-12 weeks old; age-matched within each experiment) were randomly assigned in groups of five for each condition based on previous findings that this size was sufficient to distinguish responding versus nonresponding groups. Anesthetized mice were immunized subcutaneously with the indicated solutions (2×50 μL at the shoulders) and boosted where indicated with half-doses (2×25 μL) after 4 weeks and 7 weeks. Sera were collected from the submandibular (cheek) vein for analysis via ELISA. Mice were sacrificed 7 d after the final immunization, and the cells from the draining lymph nodes (axillary, brachial, and inguinal) were collected.
ELISA for Serum Antibodies: Serum was analyzed for antigenspecific Ig (Anti-IgG (H+L), Jackson Immuno Research, Cat #115-035-003) or IgG (gamma-specific, #115-035-071) by ELISA, as previously described (Egelman, E. H., et al. Structure 2015, 23, 280-28). To detect E214-specifi c antibodies, the plate was coated with 5 μg/mL E214-ahx-C (provided by Merck) in PBS or with 5 μg/mL streptavidin (Sigma #85878) followed by 10 μg/mL E214-PEG-biotin in PBS. […]
Peptides were synthesized by solid phase peptide synthesis by methods known in the art. […] Antibody titers were determined using ELISA.
We subsequently investigated the immunogenicity of the Coil29 peptide platform. […] Sera were collected from all the groups at predesignated dates over 18 weeks, and analyzed for peptide-specific antibody titers via ELISA (FIG. 9). […]

SGSG-Coil29 peptide = test: IgG antibody response against the carrier SGSG-Coil29 sequence (ELISA); assay type: in vivo, C57BL/6 mice; conditions: boosts weeks 4 and 7
Procedure: Two boost containing half the primary immunization doses were given on week 4 and week 7 for both groups. Sera were collected to measure the IgG production against SGSG-Coil29 peptide using ELISA.
Antibody responses against the carrier (SGSG Coil29 sequence) were also measured by ELISA for both PEPvIII-Coil29 group and PEPvIII-Coil29/PADRE-Coil29 group (FIG. 4).
We subsequently investigated the immunogenicity of the Coil29 peptide platform. Four groups of C57BL/6 mice were immunized subcutaneously with same amount of epitope peptides (2×10^−3M of PEPvIII epitopes, 100 μL per mouse) on week 0, and boosted twice with half of the primary doses (2×10^−3M of PEPvIII epitopes, 50 μL per mouse) at weeks 4 and 7. Mice primed with an emulsion of PEPvIII with complete Fruend's adjuvant (CFA), and boosted with PEPvIII and incomplete Fruend's adjuvant (IFA) served as a positive control. Sera were collected from all the groups at predesignated dates over 18 weeks, and analyzed for peptide-specific antibody titers via ELISA (FIG. 9). […] Strikingly, the second boost at week 7 elevated the antibody titer nearly 100-fold, with the highest titer level reaching about 10^5 at week 9. […] The considerable difference in antibody response between P-C and P-C/P groups underlined the importance of the T cell epitope (PADRE) in promoting antibody responses with the Coil29 platform. […]

splenocytes = test: T-cell ELISPOT (IL-4, IFNγ) on splenocytes of immunized mice; assay type: cell-based, C57BL/6 mice
Procedure: T-Cell ELIspot: T-cell ELIspots were performed as described. Briefly, 0.25 million cells from the spleen were plated in each well of a 96-well ELIspot plate (Millipore, MSIPS4510), in 200 μL per well. The cells were then stimulated with peptide or left untreated as negative controls. […] Streptavidinalkaline phosphatase (3310-10) was purchased from Mabtech. Spots were developed using substrate Sigmafast BCIP/NBT (Sigma, B5655). Plates were imaged and enumerated using an ELISPOT reader (Cellular Technology, Ltd).
We further analyzed how the PADRE epitope dosing could impact the humoral response in the current platform (FIG. 10). Four groups of mice were immunized with Coil29 nanofibers formulated with different PADRE epitope concentrations ranging from 0 to 0.5×10^−3M in final concentration, and the PEPvIII-specific total IgG titers were monitored over 17 weeks (FIG. 10A). […] However, the difference in antibody response in relationship with PADRE dosing could possibly be caused by several reasons, including the use of a different B cell epitope. We are currently investigating the mechanism of this observation. It highlighted the significance in future application where the formulation of nanofibers should be fine-tuned for different epitopes induce optimal response. […]

[2] = test system: dendritic cells (CD11c+MHCII+F4/80−); test: Uptake of TAMRA labelled peptides by dendritic cells in vivo (flow cytometry of peritoneal lavage fluid); design: species or system C57BL/6 mice; conditions: TAMRA labelled peptide, i.p. injection, peritoneal lavage 20 h after injection
Procedure: (§1) Antibodies and Flow Cytometry: Antibodies were purchased from eBioscience unless specified. Flow cytometry was performed using LSRII blue (BD). FlowJo (Tree Star Inc.) was used in the analysis of flow data. For analysis of cell recruitment to the peritoneal cavity, cells isolated from i.p. lavage fluid were stained and analyzed as described.
(§2) To examine whether the epitope-bearing nanofibers could be internalized by APCs, C57BL/6 mice were immunized via i.p. injection with 1×PBS, or PEPvIII or P-C peptides fluorescently labelled with TAMRA (FIG. 8). […] The peritoneal lavage fluid was collected 20 h after injections, to analyze for the percentage of TAMRA positive DCs (CD11c^+MHCII^+F4/80^−) and MΦ (CD11c^−F4/80^+) using flow cytometry (FIG. 18).

[3] = test system: macrophages (CD11c−F4/80+); test: Uptake of TAMRA labelled peptides by macrophages in vivo (flow cytometry of peritoneal lavage fluid); design: species or system C57BL/6 mice; conditions: TAMRA labelled peptide, i.p. injection, peritoneal lavage 20 h after injection
Procedure: as §1, §2

Substance	PEPvIII-specific total IgG titers, PADRE dosing study ([1]; PADRE 0 or 0.05×10^−3 M final concentration, monitored over 17 weeks)	PEPvIII-specific IgG antibody response [1]	PEPvIII-specific IgG antibody response ([1]; listed as PEPvIII-Coil29)	IgG antibody response against SGSG-Coil29 (SGSG-Coil29 peptide)	IgG antibody response against SGSG-Coil29 (SGSG-Coil29 peptide; listed as PEPvIII-Coil29)	T cell IFNγ and IL4 response (ELISPOT) (splenocytes; splenocytes collected on week 18, stimulated with PADRE or PEPvIII peptide)	percentage of TAMRA positive dendritic cells [2]	percentage of TAMRA positive macrophages [3]	concentration above which the ELISPOT response saturated (splenocytes; preliminary experiments)
NH2-LEEKKGNYVVTDH SGSG QARILEADAEILRAYARILEAHAEILRAQ-Amide (H-LEEKKGNYVVTDHSGSGQARILEADAEILRAYARILEAHAEILRAQ-NH2) [P-C]	negligible levels of IgG	unable to raise a significant level of epitope-specific IgG antibody titer	very weak responses	gradually diminished to a negligible level after the total IgG titers peaked at week 9	self-limiting, returning to baseline levels after 16 weeks	responded to neither PADRE peptide nor PEPvIII peptide	–	–	–
NH2-LEEKKGNYVVTDH-Amide [PEPvIII, reference compound]	–	did not elicit antibody responses; also recorded: failed to elicit any antibody response	–	–	–	–	statistically indistinguishable from the 1×PBS negative control group	statistically indistinguishable from the 1×PBS negative control group	–
NH2-aKXVAAVVTLKAa-Amide [PADRE, reference compound]	–	–	–	–	–	–	–	–	above 0.5×10^−6 M
